The values that follow come from US5753656A, “Method for treating spinocerebellar degeneration” (Suntory Limited, priority 1994, dated 1998).

In general, LD50 refers to the dose expected to kill half of the subjects tested. Lower therefore signals a more toxic substance.

For data set [1] the following is noted: KOKAI No. 25323/84; cited from earlier work.
Data set [2] is described as follows: Acute oral toxicity (LD50) in rats. Type of data set: in vivo. An excerpt:
As the active ingredients provided by the present invention for treatment of spinocerebellar degeneration, (6R)-L-erythro-5,6,7,8-tetrahydrobiopterin (BH4) and its salts are most preferable, but analogous compounds such as (6R,S)-5,6,7,8-tetrahydrobiopterin, 1',2'-diacetyl-5, 6,7,8-tetrahydrobiopterin, sepiapterin, 6-methyl-5,6,7,8-tetrahydropterin or 6-phenyl-5,6,7,8-tetrahydropterin and their salts may also be acceptable. However, needless to say, BH4 which naturally exists in the body is preferable. […] The other compounds belonging to formula (I) likewise have little or no acute toxicity.

The subject of data set [3] is Machado-Joseph disease (patients). Briefly: Double-blind crossover trial of BH4: overall conclusion on neurologic symptoms. The class given is in vivo, humans. The settings on record: 1 mg/kg once daily, 10 days, oral capsules. The procedure: (§1) To 5 patients with Machado-Joseph disease listed in Table 1, a placebo (ascorbic acid) and BH4 were administered in a double-blind clinical trial with the procedure as follows:
(§2) Three patients from three families diagnosed as "clinically definite family" and two patients from two families diagnosed as "probable family" according to the diagnostic criteria by Sakai (Sakai, T., ditto) were selected.
(§3) The patients received 1 mg/kg(b.w.) of BH4 or ascorbic acid in capsules once daily, after lunch. The chemical form of BH4 given was BH4 dihydrochloride in Cases 1 to 3 and 5 and (6R,S)-L-erythro-5, 6,7,8-tetrahydrobiopterin dihydrochloride in Case 4.
Each patient was assessed by the following three methods:
(§4) A double-blind, placebo-controlled crossover design was adopted.
(§5) Data were analyzed using paired t-test.

Data set [4] shares this test system. Briefly: Double-blind crossover trial of BH4: neurological examination. The class given is in vivo, humans. The settings on record: 1 mg/kg once daily, 10 days. The procedure:
as §1, §2, §3
The examination was performed in respect of muscle tonus of the extremities, deep reflexes, severity of dystonia, disturbance of stationary balance on standing, finger-to-nose test, finger tapping test, diadochokinetic test, heel-to-knee tapping test, and dysarthria.
as §4, §5

For data set [5] the test system is unchanged. In words: Double-blind crossover trial of BH4: subjective improvement. Type of data set: in vivo, humans. As to conditions: 1 mg/kg once daily, 10 days. The procedure: as §1, §2, §3
Each patient was asked with respect to six symptomatic parameters: dysarthria, dysphagia, disturbance of dexterity, disturbance of stationary balance on standing, disturbance of gait, and overall sense of general well-being.
as §4, §5

Entries after “also recorded” stand apart in the source; their conditions may differ. Structures can show the parent of a compound that is named as a salt. A value given as a limit tells only on which side of the number the result lay.

With `C[C@H](O)[C@H](O)C1CNc2nc(N)[nH]c(=O)c2N1` (stereo partly drawn) [(6R,S)-5,6,7,8-tetrahydrobiopterin], the “Toxicity as seen in the treatment of patients with Parkinson disease” value in data set [1] is listed as “only slightly toxic”.

Take `C[C@H](O)[C@H](O)[C@H]1CNc2nc(N)[nH]c(=O)c2N1` [BH4 dihydrochloride]: in data set [2], the “Acute oral toxicity, assessment in words” value was “practically non-toxic”. Moreover, the LD50 in data set [2] (rat, in vivo) is over 2000 mg/kg.

Regarding `C[C@H](O)[C@H](O)[C@H]1CNc2nc(N)[nH]c(=O)c2N1` [BH4, (6R)-L-erythro-5,6,7,8-tetrahydrobiopterin], the “Effect on neurologic symptoms of Machado-Joseph disease, conclusion” value in data set [3] was “remarkable therapeutic efficacy; also recorded: effective in improving neurologic symptoms”; in data set [3] (listed as tetrahydrobiopterin) it was “remarkable amelioration of the neurologic symptoms”. In addition, the “Neurological parameters, overall result” value in data set [4] is given as “none exhibited a statistically significant improvement”. In data set [5], the “Subjective symptoms, overall result” value is recorded as “none showed a statistically significant improvement”.
